# pIC50: −log10 of the molar value.
# Biological target: T1, human Cot/Tpl2 kinase (Homo sapiens, UniProt P41279)
# T1 construct: human Cot/Tpl2 kinase construct encoding residues 30-398; 6His (N); made in house; host or cells: Sf9 insect cells, baculovirus system (BD Biosciences)
# Test: Tpl2/Cot kinase assay: GST-MEK1 phosphorylation detected by ELISA (DELFIA Eu)
# Format: biochemical
# Conditions: 0.4 nM Tpl2, 35 nM GST-MEK1, 50 uM ATP, 1 h at 30° C.
# Procedure, shortened: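 His-tagged human Tpl2 from Sf9 cells, Ni-affinity and size-exclusion purified (monomer). 0.4 nM Tpl2 with 35 nM GST-MEK1, 50 uM ATP, MOPS pH 7.2, 1% DMSO, 1 h at 30° C; EDTA stop. MEK1 Ser217/221 phosphorylation detected by anti-phospho-MEK1 and Eu-labelled secondary ELISA; IC50 fitted.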
# T1 sequence (P41279 30-398): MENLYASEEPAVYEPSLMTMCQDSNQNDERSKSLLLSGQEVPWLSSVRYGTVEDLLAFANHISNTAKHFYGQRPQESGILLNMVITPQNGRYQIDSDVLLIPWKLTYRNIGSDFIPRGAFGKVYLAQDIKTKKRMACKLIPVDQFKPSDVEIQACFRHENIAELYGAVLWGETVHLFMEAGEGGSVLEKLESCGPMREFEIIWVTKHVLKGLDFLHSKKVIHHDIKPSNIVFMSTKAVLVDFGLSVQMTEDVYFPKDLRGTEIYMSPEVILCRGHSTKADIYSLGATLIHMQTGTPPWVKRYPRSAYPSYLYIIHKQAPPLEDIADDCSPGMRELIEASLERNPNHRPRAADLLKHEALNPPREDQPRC
row,SMILES,pIC50
1,"N#Cc1cnc2ccc(NCc3ccoc3)cc2c1Nc1ccc(F)c(Cl)c1 [Example 5, 4-(3-Chloro-4-fluoro-phenylamino)-6-[(furan-3-ylmethyl)-amino]-quinoline-3-carbonitrile]",6.43
2,"COc1cc(NCc2cnc[nH]2)cc2c(Nc3ccc(F)c(Cl)c3)c(C#N)cnc12 [Example 47, 4-(3-Chloro-4-fluoro-phenylamino)-6-[(3H-imidazol-4-ylmethyl)-amino]-8-methoxy-quinoline-3-carbonitrile]",7.89
3,"N#Cc1cnc2ccc(NCc3cccnc3)cc2c1Nc1ccc(F)c(Cl)c1 [Example 37, 4-(3-Chloro-4-fluoro-phenylamino)-6-[(pyridin-3-ylmethyl)-amino]-quinoline-3-carbonitrile]",6.39
4,"N#Cc1cnc2ccc(NCc3cccnc3)cc2c1Nc1cccc(Cl)c1 [Example 72, 4-(3-chlorophenylamino)-6-(pyridin-3-ylmethylamino)quinoline-3-carbonitrile]",7.62
5,"N#Cc1cnc2c(Br)cc(NCc3cn(CCN)nn3)cc2c1Nc1ccc(F)c(Cl)c1 [Example 304, 6-{[1-(2-Amino-ethyl)-1H-[1,2,3]triazol-4-ylmethyl]-amino}-8-bromo-4-(3-chloro-4-fluoro-phenylamino)-quinoline-3-carbonitrile]",7.77
6,"N#Cc1cnc2c(Cl)cc(NCc3nnn[nH]3)cc2c1Nc1ccc(F)c(Cl)c1 [Example 279, 8-Chloro-4-[(3-chloro-4-fluorophenyl)amino]-6-[(1 H-tetrazol-5-ylmethyl)amino]quinoline-3-carbonitrile]",8.59
7,"N#Cc1cnc2c(Br)cc(NCc3ccoc3)cc2c1Nc1ccc(F)c(Cl)c1 [Example 299, 8-Bromo-4-(3-chloro-4-fluoro-phenylamino)-6-[(furan-3-ylmethyl)-amino]-quinoline-3-carbonitrile]",6.32
8,"Cc1nn(C)c(Cl)c1CNc1ccc2ncc(C#N)c(Nc3ccc(F)c(Cl)c3)c2c1 [Example 132, 6-((5-chloro-1,3-dimethyl-1H-pyrazol-4-yl)methylamino)-4-(3-chloro-4-fluorophenylamino)quinoline-3-carbonitrile]",4.76
9,"Cc1cc2ncc(C#N)c(Nc3ccc(F)c(Cl)c3)c2cc1NCc1cnc[nH]1 [Example 226, 4-[(3-chloro-4-fluorophenyl)amino]-6-[(1H-imidazol-5-ylmethyl)amino]-7-methylquinoline-3-carbonitrile]",< 4.40
10,"N#Cc1cnc2c(Cl)cc(NCc3cnc[nH]3)cc2c1Nc1ccc(F)c(Cl)c1 [Example 177, 6-((1H-imidazol-5-yl)methylamino)-8-chloro-4-(3-chloro-4-fluorophenylamino)quinoline-3-carbonitrile]",8.00
11,"N#Cc1cnc2ccc(NC[C@H]3CCCN3)cc2c1Nc1ccc(F)c(Cl)c1 [Example 46, 4-(3-Chloro-4-fluoro-phenylamino)-6-[(D-pyrrolidin-2-ylmethyl)-amino]-quinoline-3-carbonitrile]",4.52
12,"N#Cc1ccccc1CNc1cc(C(F)(F)F)c2ncc(C#N)c(Nc3ccc(F)c(Cl)c3)c2c1 [Example 233, 4-[(3-chloro-4-fluorophenyl)amino]-6-[(2-cyanobenzyl)amino]-8-(trifluoromethyl)quinoline-3-carbonitrile]",< 4.40
13,"N#Cc1cnc2c(C#N)cc(NCc3cccnc3)cc2c1Nc1cccc(Cl)c1 [Example 74, 4-(3-chlorophenylamino)-6-(pyridin-3-ylmethylamino)quinoline-3,8-dicarbonitrile]",6.85
14,"CC(C)(C)S(=O)(=O)Nc1c(C#N)cnc2ccc(NCc3cnc[nH]3)cc12 [Example 180, N-(6-((1H-imidazol-5-yl)methylamino)-3-cyanoquinolin-4-yl)-2-methylpropane-2-sulfonamide]",< 4.40
15,"CCOc1cc2ncc(C#N)c(Nc3ccc(F)c(Cl)c3)c2cc1NCc1cnc[nH]1 [Example 165, 6-((1H-imidazol-5-yl)methylamino)-4-(3-chloro-4-fluorophenylamino)-7-ethoxyquinoline-3-carbonitrile]",< 4.40
16,"N#Cc1cnc2c(Br)cc(NCc3ccccn3)cc2c1Nc1ccc(F)c(Cl)c1 [Example 78, 8-bromo-4-(3-chloro-4-fluorophenylamino)-6-(pyridin-2-ylmethylamino)quinoline-3-carbonitrile]",7.12
17,"CN1CCN(C(=O)Cn2ccnc2CNc2ccc3ncc(C#N)c(Nc4ccc(F)c(Cl)c4)c3c2)CC1 [Example 141, 4-(3-chloro-4-fluorophenylamino)-6-((1-(2-(4-methylpiperazin-1-yl)-2-oxoethyl)-1H-imidazol-2-yl)methylamino)quinoline-3-carbonitrile]",6.92

# Same assay, conditions: Table 2; Tpl2/Cot kinase, GST-MEK1 substrate, 50 uM ATP
row,pIC50,SMILES
1,7.70,C=CCn1cc(CNc2cc(Br)c3ncc(C#N)c(Nc4ccc(F)c(Cl)c4)c3c2)nn1 [Example 561]
2,7.60,CCN1CC(CCn2cc(CNc3cc(Cl)c4ncc(C#N)c(Nc5ccc(F)c(Cl)c5)c4c3)nn2)N(c2ccccc2)C1=O (stereo not drawn) [Example 616]
3,7.64,N#Cc1cnc2c(Br)cc(NCc3cn(-c4ccncc4)cn3)cc2c1Nc1ccc(F)c(Cl)c1 [Example 554]
4,< 5.52,CN(Cc1cn(C)cn1)c1cc(Br)c2ncc(C#N)c(Nc3ccc(F)c(Cl)c3)c2c1 [Example 611]
5,< 4.40,N#Cc1cnc2c(Br)cc(N(Cc3cn(CCN4CCOCC4)nn3)Cc3cn(CCN4CCOCC4)nn3)cc2c1Nc1ccc(F)c(Cl)c1 [Example 477]
6,6.10,N#Cc1cnc2c(Br)cc(NCc3cc(C4CCNCC4)n[nH]3)cc2c1Nc1ccc(F)c(Cl)c1 [Example 537]
7,7.66,CN1CCC(n2cc(CN(C)c3cc(Br)c4ncc(C#N)c(Nc5ccc(F)c(Cl)c5)c4c3)nn2)CC1 [Example 506]
8,6.62,CN(C)CCc1nc[nH]c1CNc1cc(Br)c2ncc(C#N)c(Nc3ccc(F)c(Cl)c3)c2c1 [Example 571]
9,< 5.52,Fc1ccc(Nc2ncncc2-c2cccc(NCc3cnc[nH]3)c2)cc1Cl [Example 535]
10,6.70,N#Cc1cnc2c(Cl)cc(NCC(=O)NCc3cccnc3)cc2c1Nc1ccc(F)c(Cl)c1 [Example 598]
11,6.54,CN1CCC(Cn2cc(CN(C)c3cc(Br)c4ncc(C#N)c(Nc5ccc(F)c(Cl)c5)c4c3)nn2)CC1 [Example 505]
12,8.74,CN(CCCn1cc(CNc2cc(Cl)c3ncc(C#N)c(Nc4ccc(F)c(Cl)c4)c3c2)nn1)C1CCCCC1 [Example 609]
13,7.19,CCN1CCC(CCn2cc(CNc3cc(Br)c4ncc(C#N)c(Nc5ccc(F)c(Cl)c5)c4c3)nn2)CC1 [Example 568]
14,< 5.52,CC(C)(C)OC(=O)N1CCC(CCn2cc(CN(Cc3cn(CCC4CCN(C(=O)OC(C)(C)C)CC4)nn3)c3cc(Br)c4ncc(C#N)c(Nc5ccc(F)c(Cl)c5)c4c3)nn2)CC1 [Example 509]

# Continued, compound first:
row,SMILES,pIC50
1,N#Cc1cnc2ccc(NCCN3CCOCC3)cc2c1Nc1ccc(Sc2ccccc2)c(Cl)c1 [Example 353],6.33
2,N#Cc1cnc2ccc(NCCN3CCOCC3)cc2c1Nc1cccc(F)c1 [Example 351],5.72
3,CN(C)Cc1cc(NCCN2CCOCC2)cc2c(Nc3cccc(Br)c3)c(C#N)cnc12 [Example 387],< 4.40
4,N#Cc1cnc2c(Br)cc(NCc3cc(-c4ccncc4)[nH]n3)cc2c1Nc1ccc(F)c(Cl)c1 [Example 455],4.87

# Same assay, conditions: Tpl2/Cot kinase, GST-MEK1 substrate, 50 uM ATP
row,SMILES,pIC50
1,CN(CCCn1cc(CNc2cc(Cl)c3ncc(C#N)c(Nc4ccc(F)c(Cl)c4)c3c2)nn1)C1CCCCC1 [Example 801],8.74
2,CN(C)CC(c1ccccc1)n1cc(CNc2cc(Cl)c3ncc(C#N)c(Nc4ccc(F)c(Cl)c4)c3c2)nn1 (stereo not drawn) [Example 740],7.15
3,N#Cc1cnc2c(Cl)cc(NCc3cn(CCCN4CCCCC4)nn3)cc2c1Nc1ccc(F)c(Cl)c1 [Example 712],8.96
4,N#Cc1cnc2c(Br)cc(NCc3cn(Cc4ccccn4)nn3)cc2c1Nc1ccc(F)c(Cl)c1 [Example 753],7.48
5,CN(C)C(=O)N1CCC(CCn2cc(CNc3cc(Cl)c4ncc(C#N)c(Nc5ccc(F)c(Cl)c5)c4c3)nn2)CC1 [Example 830],7.72
6,COCCn1cc(CNc2cc(Cl)c3ncc(C#N)c(Nc4ccc(F)c(Cl)c4)c3c2)nn1 [Example 733],7.70
7,N#Cc1cnc2c(Cl)cc(NCc3cn(CC(=O)NC4CC4)nn3)cc2c1Nc1ccc(F)c(Cl)c1 [Example 876],8.89
8,COCCOCCn1cc(CNc2cc(Cl)c3ncc(C#N)c(Nc4ccc(F)c(Cl)c4)c3c2)nn1 [Example 744],7.68
9,CC(C)(C)OC(=O)N1CCCC1Cn1cc(CNc2cc(Br)c3ncc(C#N)c(Nc4ccc(F)c(Cl)c4)c3c2)nn1 (stereo not drawn) [Example 717],6.57
10,CC(C)(C)OC(=O)N1CCCC1Cn1cc(CNc2cc(Cl)c3ncc(C#N)c(Nc4ccc(F)c(Cl)c4)c3c2)nn1 (stereo not drawn) [Example 716],6.49
11,CC(C)n1cnc(CNc2cc(Br)c3ncc(C#N)c(Nc4ccc(F)c(Cl)c4)c3c2)c1 [Example 804],7.17
12,CC(C)(C)OC(=O)N1CCC(CCn2cc(CN(Cc3cn(CCC4CCN(C(=O)OC(C)(C)C)CC4)nn3)c3cc(Br)c4ncc(C#N)c(Nc5ccc(F)c(Cl)c5)c4c3)nn2)CC1 [Example 693],< 5.52

# Same assay, conditions: Tpl2/Cot kinase, GST-MEK1 substrate, 50 uM ATP, 1 h at 30° C.; Table 2
row,SMILES,pIC50
1,CC(C)(C)OC(=O)N1CCC(n2cc(CNc3cc(Cl)c4ncc(C#N)c(NC5CCCCCC5)c4c3)nn2)CC1 [Example 948],5.64
2,C[C@H](CNc1ccccn1)Nc1cc(Cl)c2ncc(C#N)c(Nc3ccc(F)c(Cl)c3)c2c1 [Example 933],5.70
3,N#Cc1cnc2c(Cl)cc(NCc3cn(C4CCN(CCO)CC4)nn3)cc2c1Nc1ccc(F)c(Cl)c1 [Example 992],8.70
4,CCNC(=O)N1CCC(n2cc(CNc3cc(Cl)c4ncc(C#N)c(Nc5ccc(F)c(Cl)c5)c4c3)nn2)CC1 [Example 931],7.72

# Source: patent US20060264460A1 (Wyeth, priority 2005, published 2006)
